The source of these data is patent publication US4835163A, “N-alkoxyalkyl derivatives of quinolone carboxamides” (Sanofi, priority 1986, dated 1989).

Series [1] can be described thus: anticonvulsive activity, test with pentetrazol. The note with it: Mus musculus, 0.5 h; oral route, 30 minutes before pentetrazol 135 mg/kg s.c.; dose which avoids attacks in half of the animals; read-out: DE50 (the source's name). It is filed as in vivo, mice (male CD1). How it is done: This activity has been studied by the test with pentetrazol, according to the method of EVERETT and RICHARDS (J. Pharm. Exp. Ther. 1944, 81, 402-407).
Thus the DE50 is determined, which is the dose which avoids the appearance of attacks in half of the animals. The DE 50 has been calculated by the method of D. K. Finney (Probit analysis; University Press; Cambridge; 1971).

Series [2] is described as follows: locomotive activity, photoelectric cell actimeter. The note with it: 32 mg/kg O.R.; untreated mice 553 ± 200; P <0.05 (Student test). It is filed as in vivo, mice (male CD1). How it is done: The mice (male CD1 20-25 g) are placed in groups of three in the cages of a photoelectric cell actimeter. After 30 minutes of getting used to the enclosure, the animas are treated by oral route with the product under test in suspension in carboxymethylcellulose at 1%. A control set of untreated mice receive only the vehicle. Each set contains 12 groups of 3 mice. The movement activity responses are recorded for 80 minutes.

Series [3] is described as follows: antagonist activity vis a vis the hypnotic effects of benzodiazepines. Conditions: 25 mg/kg i.p., 15 minutes before diazepam 6 mg/kg i.p.; control 97 ± 12; * P < 0.05 vs control.
Series [4] is described as follows: acute oral toxicity (LD 50). The note with it: mouse, in vivo, mice. The source says: The components of the invention benefit from a good tolerance and a weak toxicity. […] 1, in mice.

`CCCNC(=O)c1cn(COC)c2ccc(OC)cc2c1=O` [derivative no. 12, 1-methoxymethyl-4-oxo-6-methoxy-1,4-dihydro-quinoline 3-(N-propyl)carboxamide]: the ED50 in series [1] is 65 mg/kg.
In the case of `COCn1cc(C(=O)NC2CCCC2)c(=O)c2ccccc21` [derivative no. 8, 1-methoxymethyl-4-oxo-1,4-dihydro-quinoline 3-(N-cyclopentyl)carboxamide], the ED50 in series [1] came to 108 mg/kg.
A word on the LD50: it is the dose at which mortality reaches 50%. A lower LD50 goes with a more toxic substance. Turning to `CCCNC(=O)c1cn(COC)c2ccccc2c1=O` [derivative no. 1, 1-methoxymethyl-4-oxo-1,4-dihydro-quinoline 3-(N-propyl)carboxamide], the “Movement Activity for 80 min” value in series [2] came to 1842 ± 470. The Length of sleep in series [3] was 39 ± 20 min. Also, the LD50 in series [4] was determined as 1100 mg/kg. Moreover, the ED50 in series [1] was 55 mg/kg.
As for `CCCNC(=O)c1cn(CCOCC)c2ccccc2c1=O` [derivative no. 14, 1-ethoxyethyl-4-oxo-1,4-dihydro-quinoline 3-(N-propyl)carboxamide], the ED50 in series [1] turned out to be 79 mg/kg.
Same read-out and setting: the figure for `CCCNC(=O)c1cn(COCC)c2ccccc2c1=O` [derivative no. 13, 1-ethoxymethyl-4-oxo-1,4-dihydro-quinoline 3-(N-propyl)carboxamide] is 75 mg/kg.
`CCCNC(=O)c1cn(COC)c2ccc(F)cc2c1=O` [derivative no. 9, 1-methoxymethyl-4-oxo-6-fluoro-1,4-dihydro-quinoline 3-(N-propyl)carboxamide] returned a Length of sleep in series [3] of 22 ± 8 min. Further, the ED50 in series [1] came to 62 mg/kg.
On to `COCn1cc(C(=O)NCC(C)C)c(=O)c2ccccc21` [derivative no. 5, 1-methoxymethyl-4-oxo-1,4-dihydro-quinoline 3-(N-isobutyl)carboxamide], for which the Length of sleep in series [3] amounted to 62 ± 10 min. Moreover, the ED50 in series [1] amounted to 46 mg/kg.
In the same order, the values of `COCn1cc(C(=O)NC2CC2)c(=O)c2ccccc21` [derivative no. 7, 1-methoxymethyl-4-oxo-1,4-dihydro-quinoline 3-(N-cyclopropyl)carboxamide] are 32 ± 11 min and 67 mg/kg.
As to `CCC1(c2ccccc2)C(=O)NC(=O)NC1=O` [phenobarbital, reference compound], the ED50 in series [1] is 10 mg/kg.
Turning to `CCCC(CCC)C(=O)[O-].[Na+]` [sodium valproate, reference compound], in series [1], the ED50 amounted to 200 mg/kg.
Same read-out and setting: the figure for `CCCNC(=O)c1cn(COC)c2c(Cl)cccc2c1=O` [derivative no. 11, 1-methoxymethyl-4-oxo-8-chloro-1,4-dihydro-quinoline 3-(N-propyl)carboxamide] is 21 mg/kg.
With `CCNC(=O)c1cn(COC)c2ccccc2c1=O` [derivative no. 3, 1-methoxymethyl-4-oxo-1,4-dihydro-quinoline 3-(N-ethyl)carboxamide], the Length of sleep in series [3] was found to be 9 ± 4 min.
As to `CCCNC(=O)c1cn(CCOC)c2ccccc2c1=O` [derivative no. 15, 1-methoxyethyl-4-oxo-1,4-dihydro-quinoline 3-(N-propyl)carboxamide], the ED50 in series [1] came to 50 mg/kg.
On to `CCCNC(=O)c1cn(COC)c2c(F)cccc2c1=O` [derivative no. 10, 1-methoxymethyl-4-oxo-8-fluoro-1,4-dihydro-quinoline 3-(N-propyl)carboxamide], for which the ED50 in series [1] is 53 mg/kg.
